In ChEMBL document CHEMBL1153984, “Ganoderic acid DM: anti-androgenic osteoclastogenesis inhibitor” (Bioorg Med Chem Lett, 2009):
The source made the active and inactive calls. The calls are words filed in the database; no cut-off is given here.

Key:
PC-3 [1] = test: Antiproliferative activity against human PC3 cells after 3 days by NR assay; type: functional, cell-based
[2] = (§1) Inhibition of 5-alpha-reductase in rat liver microsome assessed as conversion of [14C] testosterone to [14C] dihydrotestosterone; type: microsomes
LNCaP [3] = test: Growth inhibition of human LNCAP cells assessed as decrease in cell viability after 3 days by NR assay; type: functional, cell-based
[4] = Cytotoxicity against mouse RAW264 cells assessed as viable cells at 25 uM after 3 days by WST1 assay; type: cell-based; conditions: read-out: Activity
LNCaP [5] = test: Growth inhibition against dihydrotestosterone-induced human LNCAP cell proliferation assessed as decrease in cell viability after 3 dayssby NR assay; type: functional, cell-based
RAW264 = test: Inhibition of osteoclastogenesis in RANKL-stimulated mouse RAW264 cells at 25 uM after 3 days by TRAP assay; type: functional, cell-based
[6] = Cytotoxicity against mouse RAW264 cells assessed as cell number at 12.5 uM after 3 days by WST1 assay; type: cell-based; conditions: raw264, 72 h
Rattus norvegicus = organism: Rattus norvegicus; test: as §1; type: microsomes
LNCaP [7] = test: Growth inhibition against testosterone-induced human LNCAP cell proliferation assessed as decrease in cell viability after 3 dayssby NR assay; type: functional, cell-based
[8] = Inhibition of osteoclastogenesis in RANKL-stimulated mouse RAW264 cells at 12.5 uM after 3 days by TRAP assay; type: functional; conditions: RAW264.7, 72 h
PC-3 [9] = test: Antiproliferative activity against human PC3 cells at 12.5 to 50 uM after 3 days by NR assay; type: functional, cell-based
[10] = biological target: T1, Androgen receptor (Homo sapiens) (UniProt P10275); test: Inhibition of DHT binding to human recombinant androgen receptor ligand binding domain at 15 uM by fluorescence polarization; set-up: scale not given: the % may be the effect or the level left
T1 sequence (whole entry): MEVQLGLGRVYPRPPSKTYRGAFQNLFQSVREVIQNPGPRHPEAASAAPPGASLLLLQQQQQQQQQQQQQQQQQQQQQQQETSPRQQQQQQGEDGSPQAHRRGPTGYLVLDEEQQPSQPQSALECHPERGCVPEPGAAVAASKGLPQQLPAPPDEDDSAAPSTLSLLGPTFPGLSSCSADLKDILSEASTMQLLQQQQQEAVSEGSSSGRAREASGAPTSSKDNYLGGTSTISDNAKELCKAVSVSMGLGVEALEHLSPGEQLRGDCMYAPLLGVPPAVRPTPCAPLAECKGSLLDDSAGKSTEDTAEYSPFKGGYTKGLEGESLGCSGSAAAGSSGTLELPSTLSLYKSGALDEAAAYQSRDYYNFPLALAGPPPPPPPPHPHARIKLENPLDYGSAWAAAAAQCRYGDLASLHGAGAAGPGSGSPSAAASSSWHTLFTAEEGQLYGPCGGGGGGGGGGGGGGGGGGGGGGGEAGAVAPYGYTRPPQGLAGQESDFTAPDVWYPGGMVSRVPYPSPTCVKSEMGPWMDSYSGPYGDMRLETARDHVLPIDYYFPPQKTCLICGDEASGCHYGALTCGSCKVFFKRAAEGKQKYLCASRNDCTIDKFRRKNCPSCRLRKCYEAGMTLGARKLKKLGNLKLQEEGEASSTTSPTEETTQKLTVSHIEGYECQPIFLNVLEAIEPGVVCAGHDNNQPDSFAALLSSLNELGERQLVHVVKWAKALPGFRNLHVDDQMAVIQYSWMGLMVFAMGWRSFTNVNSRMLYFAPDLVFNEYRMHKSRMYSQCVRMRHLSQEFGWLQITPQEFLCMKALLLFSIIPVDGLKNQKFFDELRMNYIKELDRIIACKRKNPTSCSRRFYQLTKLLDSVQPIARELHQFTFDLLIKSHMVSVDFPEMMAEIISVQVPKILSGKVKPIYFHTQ

**Q.** Which Activity (PC-3 [1]) does the source give for `C/C(=C\CC[C@@H](C)[C@H]1CC[C@@]2(C)C3=CC[C@H]4C(C)(C)[C@@H](O)CC[C@]4(C)C3=CC[C@]12C)CO` here?
**A.** inactive

**Q.** Which IC50 [2] does the source give for `CC(C)(C)NC(=O)[C@H]1CC[C@H]2[C@@H]3CC[C@H]4NC(=O)C=C[C@]4(C)[C@H]3CC[C@]12C` [FINASTERIDE] here?
**A.** 0.73 µM

**Q.** With `C/C(=C/CC[C@@H](C)[C@H]1CC[C@@]2(C)C3=C(CC[C@]12C)[C@@]1(C)CCC(=O)C(C)(C)[C@@H]1CC3=O)C(=O)O` [GANODERIC ACID DM] as the molecule, how does the Activity (LNCaP [3]) read?
**A.** Dose-dependent effect

**Q.** What about the viability at 72 h, 25 µM [4] of the same molecule?
**A.** 72%

**Q.** What about the Activity (LNCaP [5]) of the same molecule?
**A.** Dose-dependent effect

**Q.** What about the Activity (RAW264) of the same molecule?
**A.** inactive

**Q.** What about the Activity [6] of the same molecule?
**A.** Non-toxic

**Q.** What about the Activity (Rattus norvegicus) of the same molecule?
**A.** Dose-dependent effect

**Q.** And the IC50 [2]?
**A.** 10.6 µM

**Q.** What about the Activity (LNCaP [7]) of the same molecule?
**A.** Dose-dependent effect

**Q.** What about the inhibition at 12.5 µM [8] of the same molecule?
**A.** 40%

**Q.** And the Activity (PC-3 [9])?
**A.** Active

**Q.** And the Activity [10]?
**A.** 50%

**Q.** Which IC50 [2] does the source give for `CC/C=C\C/C=C\C/C=C\CCCCCCCC(=O)O` [LINOLENIC ACID] here?
**A.** 116 µM
